Earlier results, collected in US20210315865A1 (Biohaven Therapeutics Ltd., priority 2018, published 2021).

Conditions: taken with meals

food effect on exposure: reduced exposure when taken with meals
Structure (SMILES): Nc1nc2ccc(OC(F)(F)F)cc2s1 [riluzole, 6-(trifluoromethoxy)benzothiazol-2-amine]
